According to US8852590B2, “Compositions and methods for treating cancer” (Merck Sharp & Dohme Corp., priority 2009, dated 2014):
“Also recorded” adds a separate entry of the source.

How the values were obtained:
H1703 = test: Soft agar colony formation assay, H1703; type: cell-based, human; details: H1703, low expression of IGF1R
Method: (§1) The colony formation assay was performed in the absence of supplemented IGF. […] No significant correlation of KRAS-status and response to the combination was observed.
(§2) Methods: Soft agar assays were conducted in 96 well glass bottom plates (MatriCal). Cells were seeded at a concentration of 3,000-9,000 cells per well in 100 μl RMPI 1640 supplemented with 14% FBS and 0.3% (w/v) SeaPlaque Agarose (Lonza Rockland, Inc) on top of a bottom layer of consisting of the same culture media supplemented with 0.8% agarose. Compounds were added in 100 μl of culture media supplemented after agarose had solidified. Cells were incubated for 7-14 days before staining overnight with LavaCell (Active Motif). Colonies were quantified using an Isocyte™ laser scanning cytometer. […] The RTK status was evaluated in total protein lysates using the P-RTK arrays (R&D biosciences) as described by the manufacturer. The activating mutations in KRAS were identified from published cancer genome data bases (Sanger).

A549 cell line = test: Soft agar colony formation assay, A549; type: cell-based, human; details: Ridaforolimus 10 nM, MK-0646 10 ug/ml, no supplemented IGF
Method: as §1, §2

H2122 cell line = test: Soft agar colony formation assay, H2122; type: cell-based, human; details: Ridaforolimus 10 nM, MK-0646 10 ug/ml, no supplemented IGF
Method: as §1, §2

[1] = tested on: PI3 Kinase signaling pathway in H2122 cells; test: Western blot of PI3K pathway signaling in H2122 cells; type: cell-based, human; details: 4 hrs
Method: Methods: All the NSCLC cell lines were obtained from ATCC and maintained in RPMI 1640 with 10% fetal bovine serum (Invitrogen). […] Samples were western blotted with indicated total or phosphospecific antibodies followed by a secondary antibody (Cell Signaling Technology, CST) and then incubated with SuperSignal chemiluminescence substrate (Pierce). The blots were then exposed to a Kodak Biomax Light Film. The antibodies against ERK, p-ERK (Thr202/Tyr204), AKT and p-AKT (Ser473), IGF S6K & P-S6K (T389), IRS1 & P-IRS1 (S302) and actin were obtained from CST. Cell cycle analysis was performed in H2122 cells following 24 hr treatment with indicated compounds (see above). One million cells were permiabilized and stained with propidium Iodide (PI) as described by the manufacturer (BD Pharmingen #550825). PI binds to both DNA and RNA, so the latter was removed by digestion with ribonucleases (RNase A). The content of DNA as determined by flow cytometry, can reveal useful information about the cell cycle. Cells in G2 and M phases of the cell cycle have double the DNA content of those in G0 and G1 phases. Cells in S phase have a DNA content lying between these extremes. PI is detected in the orange range of the spectrum using a 562-588 nm band pass filter using a flow cytometer. […] Both compounds act by inhibiting oncogenic signaling through the PI3 Kinase signaling pathway. […]

AKT-P = details: treatment of patients, O'Reilly et al 2006; cited from earlier work
[2] = tested on: A549 human NSCLC xenograft; test: A549 mutant-KRAS lung xenograft model; type: in vivo, athymic Nude-Foxn1nu mice
Method: Method: 2.5×10^6 A549 human NSCLC cells were injected subcutaneously into the right flank of 4-6 week old athymic Nude-Foxn1nu mice (Charles River Laboratories). When tumors reached a size of ˜300 mm3 (Length*Width*Width*0.5), mice were randomized into treatment groups. […] Animals were weighed and tumor volumes were determined by calipering 2 times per week during the study and at termination. Tumor weight was determined at termination. On day 21 Animals were sacrificed by CO2 asphyxiation. Mice were sacrificed 24 hr after the final dose. At time of sacrifice, the tissue samples were collected and processed.

MCF-7 tumor = test: Established MCF-7 tumor model in nude mice; type: in vivo; details: 250 μg/dose/mouse twice per week, 5 to 6 weeks
Method: The in vivo selection was carried out in an established tumor model. In order to do this, nude mice received a subcutaneous implant of slow-release estrogen, indispensable for the taking of the tumor in a murine model. Twenty-four hours after implantation of the estrogens, 5.10^6 MCF-7 cells are grafted onto the right flank of the mouse subcutaneously. Five days after this cell graft, the tumors are measurable and batches of 6 mice are formed at random. The treatment of the mice is carried out twice per week, during 5 to 6 weeks, at the dose of 250 μg/dose/mouse. In the control group, the mice are treated in the same fashion with a murine control isotype.

[3] = tested on: noninfected Sf9 insect cells; test: FACScan reactivity of MAb on noninfected Sf9 insect cells; type: binding
Method: For the immunization stage, mice were injected twice, by the subcutaneous route, with 8 μg of recombinant IGF-IR. Three days before the fusion of the cells of the […] with the cells of the murine myeloma Sp2OAg14, the mice were stimulated by an intravenous injection of 3 μg of the recombinant receptor. Fourteen days after the fusion, the supernatants of hybridomas were screened by ELISA, on plates sensitized by recombinant IGF-IR. The hybridomas whose supernatants were found positive were conserved and amplified before being tested on the FACS can so as to verify that the antibodies produced were likewise capable of recognizing native IGF-IR. In order to do this, MCF-7 cells from an estrogen-dependent tumor of the breast overexpressing IGF-IR were incubated with each of the culture supernatants produced by the hybridomas selected in ELISA. […] At this stage of the selection, only the hybridomas secreting MAb at the same time recognizing the recombinant receptor and the native receptor were selected and cloned. The MAb secreted by these hybridomas were produced and then purified before being tested on the FACScan, according to the method described above, on […] expressing IGF-IR or IR in order to eliminate the hybridomas at the same time recognizing the two receptors.

MCF-7 cells = test: IGF-I induced proliferation of MCF-7 cells (tritiated thymidine incorporation); type: cell-based; details: antibody 10 μg/ml; IGF-I 1 to 50 ng/ml
Text: The cell proliferation is estimated by following on the […] the incorporation of tritiated thymidine by the cells. The results are expressed as a proliferative index.

## MK-0646: humanized antibody binding IGF-1R as well as the IR/IGF-1 hybrid receptor
H1703
  soft agar single agent sensitivity: resistant
A549 cell line
  soft agar growth inhibition: only limited single agent activity
H2122 cell line
  soft agar growth inhibition: only limited single agent activity
[1]; MK-0646 10 ng/ml
  AKT phosphorylation: preventing

## CO[C@H]1C[C@@H]2CC[C@@H](C)[C@@](O)(O2)C(=O)C(=O)N2CCCC[C@H]2C(=O)O[C@H]([C@H](C)C[C@@H]2CC[C@@H](OCCO)[C@H](OC)C2)CC(=O)[C@H](C)/C=C(\C)[C@@H](O)[C@@H](OC)C(=O)[C@H](C)C[C@H](C)/C=C/C=C/C=C/1C [RAD001]
AKT-P
  AKT-P level in patients: elevated AKT-P

## C#Cc1cccc(Nc2ncnc3cc(OCCOC)c(OCCOC)cc23)c1 [Erlotinib]
[2]; Erlotinib treated group compared to vehicle
  tumor growth inhibition: No significant growth inhibition; also recorded: did not result in any appreciable tumor growth inhibition

## 7C10: murine monoclonal antibody secreted by hybridoma deposited at CNCM, IgG1, directed against IGF-IR [Example 7C10]
MCF-7 tumor
  inhibition of tumor growth: very significant inhibition
[3]
  MFI (Mean fluorescence intensity): 8.6
MCF-7 cells
  inhibition of proliferation of MCF-7 cells induced by IGF-I: significantly inhibits

## CO[C@H]1C[C@@H]2CC[C@@H](C)[C@@](O)(O2)C(=O)C(=O)N2CCCC[C@H]2C(=O)O[C@H]([C@H](C)C[C@@H]2CC[C@@H](OP(C)(C)=O)[C@H](OC)C2)CC(=O)[C@H](C)/C=C(\C)[C@@H](O)[C@@H](OC)C(=O)[C@H](C)C[C@H](C)/C=C/C=C/C=C/1C [Ridaforolimus, Dimethyl-Phosphinic Acid C-43 Rapamycin Ester]
A549 cell line
  soft agar growth inhibition: only limited single agent activity
[2]; Rida 0.1mpk, 3 weeks, end of treatment
  Relative tumor growth: 35.01%
H2122 cell line
  soft agar growth inhibition: only limited single agent activity
[1]; Ridaforolimus 10 nM
  phosphorylation of S6K: preventing
